{"source": "ChEMBL document CHEMBL1129417", "about": "“Glucose transport-enhancing and hypoglycemic activity of 2-methyl-2-phenoxy-3-phenylpropanoic acids” (1996)", "key": {"Mus musculus [1]": {"tested_on": "Mus musculus", "assay": "In vivo hypoglycemic activity expressed as glucose lowering relative to positive control in 6-8 week old C57BL/6J ob/ob mouse at 1 mg/kg.", "type": "functional"}, "Rattus norvegicus [2]": {"species": "Rattus norvegicus", "assay": "Inhibition of gluconeogenesis in rat", "type": "functional", "settings": "Rattus norvegicus; read-out: ED50"}, "3T3-L1 [3]": {"tested_on": "3T3-L1", "assay": "compound was evaluated for their acute effects in vitro by measuring 2-Deoxyglucose (2DG) uptake in vehicle treated 3T3-L1 adipocytes at concentration of 10 micro M", "type": "functional"}, "3T3-L1 [4]": {"tested_on": "3T3-L1", "assay": "compound was evaluated for their acute effects in vitro by measuring 2-Deoxyglucose (2DG) uptake in vehicle treated 3T3-L1 adipocytes at concentration of 30 micro M", "type": "functional"}, "Mus musculus [5]": {"tested_on": "Mus musculus", "assay": "compound was tested in vivo for hypoglycemic activity expressed as Glucose lowering relative to positive control in 6-8 week old C57BL/6J ob/ob mouse at 0.5 mg/kg", "type": "functional"}, "Mus musculus [6]": {"tested_on": "Mus musculus", "assay": "In vivo hypoglycemic activity expressed as glucose lowering relative to positive control in 6-8 week old C57BL/6J ob/ob mouse at 5 mg/kg.", "type": "functional"}, "Mus musculus [7]": {"tested_on": "Mus musculus", "assay": "compound was tested in vivo for hypoglycemic activity expressed as Glucose lowering relative to positive control in 6-8 week old C57BL/6J ob/ob mouse at 0.1 mg/kg", "type": "functional"}, "Mus musculus [8]": {"tested_on": "Mus musculus", "assay": "In vivo hypoglycemic activity expressed as glucose lowering relative to positive control in 6-8 week old C57BL/6J ob/ob mouse at 10 mg/kg", "type": "functional"}, "3T3-L1 [9]": {"tested_on": "3T3-L1", "assay": "compound was evaluated for their acute effects in vitro by measuring 2-Deoxyglucose (2DG) uptake in vehicle treated 3T3-L1 adipocytes at concentration of 3 micro M", "type": "functional"}, "Mus musculus [10]": {"tested_on": "Mus musculus", "assay": "compound was tested in vivo for hypoglycemic activity in 6-8 week old C57BL/6J ob/ob mouse", "type": "functional"}, "3T3-L1 [11]": {"tested_on": "3T3-L1", "assay": "In vitro measurements 2-Deoxyglucose (2DG) uptake in vehicle treated 3T3-L1 adipocytes at 100 uM dose.", "type": "functional"}, "Mus musculus [12]": {"tested_on": "Mus musculus", "assay": "compound was tested in vivo for hypoglycemic activity expressed as Glucose lowering relative to positive control in 6-8 week old C57BL/6J ob/ob mouse", "type": "functional"}, "Mus musculus [13]": {"tested_on": "Mus musculus", "assay": "compound was tested in vivo for hypoglycemic activity expressed as Glucose lowering relative to positive control in 6-8 week old C57BL/6J ob/ob mouse at 1 uM dose.", "type": "functional"}, "Mus musculus [14]": {"tested_on": "Mus musculus", "assay": "compound was tested in vivo for hypoglycemic activity expressed as Glucose lowering relative to positive control in 6-8 week old C57BL/6J ob/ob mouse at 10 uM dose.", "type": "functional"}, "Mus musculus [15]": {"tested_on": "Mus musculus", "assay": "compound was tested in vivo for hypoglycemic activity expressed as Glucose lowering relative to positive control in 6-8 week old C57BL/6J ob/ob mouse at 5 uM dose.", "type": "functional"}, "Mus musculus [16]": {"tested_on": "Mus musculus", "assay": "compound was tested in vivo for hypoglycemic activity in 6-8 week old C57BL/6J ob/ob mouse at 50 mg/kg", "type": "functional"}, "Mus musculus [17]": {"tested_on": "Mus musculus", "assay": "compound was tested in vivo for hypoglycemic activity in 6-8 week old C57BL/6J ob/ob mouse at 10 mg/kg", "type": "functional"}, "3T3-L1 [18]": {"tested_on": "3T3-L1", "assay": "compound was evaluated for their acute effects in vitro by measuring 2-Deoxyglucose (2DG) uptake in vehicle treated 3T3-L1 adipocytes at 60 uM dose.", "type": "functional"}, "Rattus norvegicus [19]": {"species": "Rattus norvegicus", "assay": "Compound was tested for inhibition of gluconeogenesis", "type": "functional", "settings": "Rattus norvegicus; read-out: ED50"}, "L6 [20]": {"tested_on": "L6", "assay": "compound was evaluated for their acute effects in vitro by measuring 2-Deoxyglucose (2DG) uptake in vehicle treated L6 […] at 60 uM dose.", "type": "functional"}, "Mus musculus [21]": {"tested_on": "Mus musculus", "assay": "compound was tested in vivo for hypoglycemic activity expressed as Glucose lowering relative to positive control in 6-8 week old C57BL/6J ob/ob mouse at 5 mg/kg", "type": "functional"}, "3T3-L1 [22]": {"tested_on": "3T3-L1", "assay": "compound was evaluated for their acute effects in vitro by measuring 2-Deoxyglucose (2DG) uptake in vehicle treated 3T3-L1 adipocytes at 10 uM dose.", "type": "functional"}, "Mus musculus [23]": {"tested_on": "Mus musculus", "assay": "compound was tested in vivo for hypoglycemic activity expressed as Glucose lowering relative to positive control in 6-8 week old C57BL/6J ob/ob mouse at 50 mg/kg", "type": "functional"}, "Mus musculus [24]": {"tested_on": "Mus musculus", "assay": "Compound was tested in vivo for hypoglycemic activity expressed as Glucose lowering relative to positive control in 6-8 week old C57BL/6J ob/ob mouse at 50 mg/kg", "type": "functional"}, "Rattus norvegicus [25]": {"species": "Rattus norvegicus", "assay": "Percentage inhibition of Glucagon- stimulated Gluconeogenesis in Isolated Rat Hepatocytes in vitro", "type": "functional, Hepatocyte"}, "Rattus norvegicus [26]": {"species": "Rattus norvegicus", "assay": "Percentage inhibition of basal stimulated Gluconeogenesis in Isolated Rat Hepatocytes in vitro", "type": "functional, Hepatocyte"}, "3T3-L1 [27]": {"tested_on": "3T3-L1", "assay": "Acute effects in vitro by measuring 2-deoxyglucose (2DG) uptake in vehicle treated 3T3-L1 adipocytes at 30 uM dose.", "type": "functional"}, "L6 [28]": {"tested_on": "L6", "assay": "compound was evaluated for their acute effects in vitro by measuring 2-Deoxyglucose (2DG) uptake in vehicle treated L6 […] at 100 uM dose.", "type": "functional"}, "L6 [29]": {"tested_on": "L6", "assay": "compound was evaluated for their acute effects in vitro by measuring 2-Deoxyglucose (2DG) uptake in vehicle treated L6 […] at 30 uM dose.", "type": "functional"}, "3T3-L1 [30]": {"tested_on": "3T3-L1", "assay": "In vitro by measurements of 2-Deoxyglucose (2DG) uptake in vehicle treated 3T3-L1 adipocytes at 3 uM dose.", "type": "functional"}, "Mus musculus [31]": {"tested_on": "Mus musculus", "assay": "compound was tested in vivo for hypoglycemic activity expressed as Glucose lowering relative to positive control in 6-8 week old C57BL/6J ob/ob mouse at 25 mg/kg", "type": "functional"}, "3T3-L1 [32]": {"tested_on": "3T3-L1", "assay": "Acute effects in vitro by measuring 2-deoxyglucose (2DG) uptake in vehicle treated 3T3-L1 adipocytes at 10 uM dose.", "type": "functional"}}}
{"compound": "CCc1cccc(CC(C)(Oc2ccc(Cc3ccccc3)cc2)C(=O)[O-])c1.[Na+]", "note": "(centres undefined)", "values": [{"measurement": "Hypoglycemic activity", "setting": "Mus musculus [1]", "result": 87, "unit": "%"}, {"measurement": "ED50", "setting": "Rattus norvegicus [2]", "result": 0.1, "unit": "mg/kg"}, {"measurement": "Basal uptake", "setting": "3T3-L1 [3]", "result": 179, "unit": "%"}, {"measurement": "Basal uptake", "setting": "3T3-L1 [4]", "result": 265, "unit": "%"}, {"measurement": "Hypoglycemic activity", "setting": "Mus musculus [5]", "result": 52, "unit": "%"}, {"measurement": "Hypoglycemic activity", "setting": "Mus musculus [6]", "result": 102, "unit": "%"}, {"measurement": "Hypoglycemic activity", "setting": "Mus musculus [7]", "result": 73, "unit": "%"}, {"measurement": "Hypoglycemic activity", "setting": "Mus musculus [8]", "result": 101, "unit": "%"}, {"measurement": "Basal uptake", "setting": "3T3-L1 [9]", "result": 128, "unit": "%"}]}
{"compound": "Cc1ccc(CC(Oc2ccc(C(C)C)cc2)C(=O)O)cc1", "note": "(centres undefined)", "values": [{"measurement": "ED50", "setting": "Rattus norvegicus [2]", "result": "< 50", "unit": "mg/kg"}, {"measurement": "Glucose lowering ob/ob dose", "setting": "Mus musculus [10]", "result": 50, "unit": "mg/kg"}, {"measurement": "Basal uptake", "setting": "3T3-L1 [11]", "result": 147, "unit": "%"}, {"measurement": "Hypoglycemic activity", "setting": "Mus musculus [12]", "result": 113, "unit": "%"}]}
{"compound": "CC(C)c1ccc(OC(C)(Cc2cccc(Cl)c2)C(=O)[O-])cc1.[Na+]", "note": "(centres undefined)", "values": [{"measurement": "ED50", "setting": "Rattus norvegicus [2]", "result": 5, "unit": "mg/kg"}, {"measurement": "Hypoglycemic activity", "setting": "Mus musculus [13]", "result": 47, "unit": "%"}, {"measurement": "Hypoglycemic activity", "setting": "Mus musculus [14]", "result": 101, "unit": "%"}, {"measurement": "Hypoglycemic activity", "setting": "Mus musculus [15]", "result": 32, "unit": "%"}]}
{"compound": "CC(C)c1ccc(SC(Cc2ccc(Cl)cc2)C(=O)O)cc1", "note": "(centres undefined)", "values": [{"measurement": "Hypoglycemic activity", "setting": "Mus musculus [16]", "result": 90, "unit": "%"}, {"measurement": "Hypoglycemic activity", "setting": "Mus musculus [17]", "result": 0, "unit": "%"}, {"measurement": "Basal uptake", "setting": "3T3-L1 [18]", "result": 102, "unit": "%"}, {"measurement": "ED50", "setting": "Rattus norvegicus [19]", "result": 10, "unit": "mg/kg"}]}
{"compound": "CC(C)c1ccc(OC(CCCCCc2ccc(Cl)cc2)C(=O)[O-])cc1.[Na+]", "note": "(centres undefined)", "values": [{"measurement": "ED50", "setting": "Rattus norvegicus [2]", "result": 10, "unit": "mg/kg"}, {"measurement": "Hypoglycemic activity", "setting": "Mus musculus [8]", "result": 32, "unit": "%"}, {"measurement": "Basal uptake", "setting": "L6 [20]", "result": 44, "unit": "%"}, {"measurement": "Hypoglycemic activity", "setting": "Mus musculus [21]", "result": 35, "unit": "%"}, {"measurement": "Basal uptake", "setting": "3T3-L1 [22]", "result": 180, "unit": "%"}, {"measurement": "Hypoglycemic activity", "setting": "Mus musculus [23]", "result": 200, "unit": "%"}]}
{"compound": "CC(C)c1ccc(OC(Cc2ccc(C(F)(F)F)cc2)C(=O)O)cc1", "note": "(centres undefined)", "values": [{"measurement": "ED50", "setting": "Rattus norvegicus [2]", "result": 10, "unit": "mg/kg"}, {"measurement": "Hypoglycemic activity", "setting": "Mus musculus [6]", "result": 30, "unit": "%"}, {"measurement": "Hypoglycemic activity", "setting": "Mus musculus [8]", "result": 42, "unit": "%"}, {"measurement": "Basal uptake", "setting": "L6 [20]", "result": 104, "unit": "%"}, {"measurement": "Basal uptake", "setting": "3T3-L1 [11]", "result": 605, "unit": "%"}, {"measurement": "Hypoglycemic activity", "setting": "Mus musculus [24]", "result": 74, "unit": "%"}]}
{"compound": "CC(C)c1ccc(OC(Cc2ccccc2)C(=O)O)cc1", "note": "(centres undefined)", "values": [{"measurement": "ED50", "setting": "Rattus norvegicus [2]", "result": 50, "unit": "mg/kg"}, {"measurement": "Inhibition", "setting": "Rattus norvegicus [25]", "result": 25, "unit": "%"}, {"measurement": "Inhibition", "setting": "Rattus norvegicus [26]", "result": 41, "unit": "%"}, {"measurement": "Basal uptake", "setting": "3T3-L1 [11]", "result": 79, "unit": "%"}, {"measurement": "Hypoglycemic activity", "setting": "Mus musculus [23]", "result": 50, "unit": "%"}]}
{"compound": "Cc1ccc(S(=O)(=O)C(CCCCCc2ccc(Cl)cc2)C(=O)O)cc1", "note": "(centres undefined)", "values": [{"measurement": "Basal uptake", "setting": "3T3-L1 [27]", "result": 100, "unit": "%"}, {"measurement": "ED50", "setting": "Rattus norvegicus [2]", "result": 25, "unit": "mg/kg"}, {"measurement": "Basal uptake", "setting": "L6 [28]", "result": 134, "unit": "%"}, {"measurement": "Basal uptake", "setting": "L6 [29]", "result": 88, "unit": "%"}, {"measurement": "Basal uptake", "setting": "3T3-L1 [30]", "result": 114, "unit": "%"}, {"measurement": "Hypoglycemic activity", "setting": "Mus musculus [31]", "result": 60, "unit": "%"}, {"measurement": "Hypoglycemic activity", "setting": "Mus musculus [8]", "result": 22, "unit": "%"}, {"measurement": "Basal uptake", "setting": "L6 [20]", "result": 124, "unit": "%"}, {"measurement": "Basal uptake", "setting": "3T3-L1 [11]", "result": 250, "unit": "%"}, {"measurement": "Basal uptake", "setting": "3T3-L1 [32]", "result": 93, "unit": "%"}, {"measurement": "Hypoglycemic activity", "setting": "Mus musculus [23]", "result": 71, "unit": "%"}]}
